Source: patent US7687536B2, “Aminocycloalkyl cinnamide compounds for arrhythmia and as analgesics and anesthetics” (Cardiome Pharma Corp., priority 1999, dated 2010)

Key:
[1] = target: T1, cardiac sodium channel (Rattus norvegicus, UniProt P15389); assay: Assessment of sodium channel blockage: electrical stimulation of left ventricle in rats; type: in vivo; settings: infusion rate required to elicit a 25% increase from control
T1 construct: from tissue; host or cells: heart (left ventricle) of the living rat, in vivo
Method: Rats were prepared according to the preceding procedure. Two silver stimulating electrodes were inserted through the chest wall and implanted in the left ventricle. Square wave stimulation was used to determine threshold current for capture, ventricular fibrillation threshold current, and effective refractory period (Howard, P. G. and Walker, M. J. A., Proc. West. Pharmacol. Soc. 33:123-127 (1990)). Table 4 contains ED25 values for these indices of cardiac sodium channel blockage, where the ED25 is the infusion rate in micromol/kg/minute of compound required to elicit a 25% increase from control. The increases in refractoriness indicate ancillary blockage of potassium channels. The threshold current for capture is represented by “It”. The fibrillation threshold current is represented by “VFT”. The effective refracting period is represented by “ERP”.

[2] = test system: cardiac arrhythmias in conscious rats subjected to coronary artery occlusion; assay: Antiarrhythmic efficacy: coronary artery occlusion in conscious rats; type: in vivo, rat; settings: infusion rate which reduces the arrhythmia score to 50% of that of vehicle-treated animals
Method: Antiarrhythmic efficacy was assessed by investigating the effect of a compound on the incidence of cardiac arrhythmias in conscious rats subjected to coronary artery occlusion. Rats weighing 200-300 gms were subjected to preparative surgery and assigned to groups in a random block design. In each case, the animal was anesthetized with halothane during surgical preparation. The left femoral artery was cannulated for measurement of mean arterial blood pressure and withdrawal of blood sample. The left femoral vein was also cannulated for injection of drugs. The thoracic cavity was opened and a polyethylene occluder loosely placed around the left anterior descending coronary artery. The thoracic cavity was then closed. ECG was recorded by insertion of electrodes placed along the anatomical axis of the heart. All cannulae and electrode leads were exteriorized in the mid scapular region. […] ECG, arrhythmias, blood pressure, heart rate and mortality were monitored for 30 minutes after occlusion. Arrhythmias were recorded as ventricular tachycardia (VT) and ventricular fibrillation (VF) and scored according to Curtis, M. J. and Walker, M. J. A., Cardiovasc. […]
Occlusion is associated with increases in R-wave height and “S-T” segment elevation; and an occluded zone (measured after death by cardiogreen dye perfusion) in the range of 25%-50% of total left-ventricular weight. […]

[3] = test system: ECG parameters (P-R, QRS, Q-T interval); assay: Measurement of ECG parameters in pentobarbital anesthetized rats, bolus injections; type: in vivo, rat; settings: bolus injection
Method: Rats weighing 200-250 gms were used in this example. Animals were anesthetized with 60 mg/kg pentobarbital i.p. The carotid artery and jugular vein were cannulated for measurement of blood pressure and drug injection, respectively. ECG was recorded by insertion of electrodes placed along the anatomical axis of the heart. All compounds were given as bolus injections.
Various ECG parameters were measured. Table 3 describes the results of the tests as ED25 (micromol/kg) which are the doses required to produce a 25% increase in the parameter measured (ne=not estimated). The increases in P-R interval and QRS interval indicate cardiac sodium channel blockage while the increase in Q-T interval indicates ancillary cardiac potassium channel blockage which is the property of a type 1a antiarrhythmic.

[4] = test system: sustained AF maintained during continuous vagal nerve stimulation; assay: Canine vagal-AF model; type: in vivo, dog
Method: Mongrel dogs of either sex weighing 15-49 kg were anesthetized with morphine (2 mg/kg im initially, followed by 0.5 mg/kg IV every 2 h) and α-chloralose (120 mg/kg IV followed by an infusion of 29.25 mg/kg/h; St.-Georges et al., 1997). Dogs were ventilated mechanically with room air supplemented with oxygen via an endotracheal tube at 20 to 25 breaths/minute with a tidal volume obtained from a nomogram. Arterial blood gases were measured and kept in the physiological range (SAO2>90%, pH 7.30-7.45). Catheters were inserted into the femoral artery for blood pressure recording and blood gas measurement, and into both femoral veins for drug administration and venous sampling. Catheters were kept patent with heparinized 0.9% saline solution. Body temperature was maintained at 37-40° C. with a heating blanket.
The heart was exposed via a medial thoracotomy and a pericardial cradle was created. Three bipolar stainless steel, Teflon™-coated electrodes were inserted into the right atria for recording and stimulation, and one was inserted into the left atrial appendage for recording. A programmable stimulator (Digital Cardiovascular Instruments, Berkeley, Calif.) was used to stimulate the right atrium with 2 ms, twice diastolic threshold pulses. Two stainless steel, Teflon™-coated electrodes were inserted into the left ventricle, one for recording and the other for stimulation. A ventricular demand pacemaker (GBM 5880, Medtronics, Minneapolis, Minn.) was used to stimulate the ventricles at 90 beats/minute when (particular during vagal-AF) the ventricular rate became excessively slow. A P23 ID transducer, electrophysiological amplifier (Bloom Associates, Flying Hills, Pa.) and paper recorder (Astromed MT-95000, Toronto, ON, Canada) were used to record ECG leads II and III, atrial and ventricular electrograms, blood pressure and stimulation artefacts. The vagi were isolated in the neck, doubly-ligated and divided, and electrodes inserted in each nerve (see below). To block changes in β-adrenergic effects on the heart, nadolol was administered as an initial dose of 0.5 mg/kg iv, followed by 0.25 mg/kg IV every two hours.
Drug effects to terminate sustained AF maintained during continuous vagal nerve stimulation were assessed. Unipolar hook electrodes (stainless steel insulated with Teflon™, coated except for the distal 1-2 cm) were inserted via a 21 gauge needle within and parallel to the shaft of each nerve. In most experiments, unipolar stimuli were applied with a stimulator (model DS-9F, Grass Instruments, Quincy, Mass.) set to deliver 0.1 ms square-wave pulses at 10 Hz and a voltage 60% of that required to produce asystole. In some experiments, bipolar stimulation was used. The voltage required to produce asystole ranged between 3-20 volts. Under control conditions, a short burst of rapid atrial pacing (10 Hz, four times diastolic threshold) was delivered to induce AF which was ordinarily sustained for more than 20 minutes. The vagal stimulation voltage was adjusted under control conditions, and then readjusted after each treatment to maintain the same bradycardic effect. AF was defined as rapid (>500 minute under control conditions), irregular atrial rhythm with varying electrogram morphology.
Diastolic threshold current was determined at a basic cycle length of 300 ms by increasing the current 0.1 mA incrementally until stable capture was obtained. For subsequent protocols current was set to twice diastolic threshold. Atrial and ventricular ERP was measured with the extrastimulus method, over a range of S1S2 intervals at a basic cycle length of 300 ms. A premature extrastimulus S2 was introduced every 15 basic stimuli. The S1S2 interval was increased in 5 ms increments until capture occurred, with the longest S1S2 interval consistently failing to produce a propagated response defining ERP. Diastolic threshold and ERP were determined in duplicate and averaged to give a single value. These values were generally within 5 ms. […]

[5] = test system: AF; settings: cited from earlier work

T1 sequence (P15389 whole entry, the tested form may be a part): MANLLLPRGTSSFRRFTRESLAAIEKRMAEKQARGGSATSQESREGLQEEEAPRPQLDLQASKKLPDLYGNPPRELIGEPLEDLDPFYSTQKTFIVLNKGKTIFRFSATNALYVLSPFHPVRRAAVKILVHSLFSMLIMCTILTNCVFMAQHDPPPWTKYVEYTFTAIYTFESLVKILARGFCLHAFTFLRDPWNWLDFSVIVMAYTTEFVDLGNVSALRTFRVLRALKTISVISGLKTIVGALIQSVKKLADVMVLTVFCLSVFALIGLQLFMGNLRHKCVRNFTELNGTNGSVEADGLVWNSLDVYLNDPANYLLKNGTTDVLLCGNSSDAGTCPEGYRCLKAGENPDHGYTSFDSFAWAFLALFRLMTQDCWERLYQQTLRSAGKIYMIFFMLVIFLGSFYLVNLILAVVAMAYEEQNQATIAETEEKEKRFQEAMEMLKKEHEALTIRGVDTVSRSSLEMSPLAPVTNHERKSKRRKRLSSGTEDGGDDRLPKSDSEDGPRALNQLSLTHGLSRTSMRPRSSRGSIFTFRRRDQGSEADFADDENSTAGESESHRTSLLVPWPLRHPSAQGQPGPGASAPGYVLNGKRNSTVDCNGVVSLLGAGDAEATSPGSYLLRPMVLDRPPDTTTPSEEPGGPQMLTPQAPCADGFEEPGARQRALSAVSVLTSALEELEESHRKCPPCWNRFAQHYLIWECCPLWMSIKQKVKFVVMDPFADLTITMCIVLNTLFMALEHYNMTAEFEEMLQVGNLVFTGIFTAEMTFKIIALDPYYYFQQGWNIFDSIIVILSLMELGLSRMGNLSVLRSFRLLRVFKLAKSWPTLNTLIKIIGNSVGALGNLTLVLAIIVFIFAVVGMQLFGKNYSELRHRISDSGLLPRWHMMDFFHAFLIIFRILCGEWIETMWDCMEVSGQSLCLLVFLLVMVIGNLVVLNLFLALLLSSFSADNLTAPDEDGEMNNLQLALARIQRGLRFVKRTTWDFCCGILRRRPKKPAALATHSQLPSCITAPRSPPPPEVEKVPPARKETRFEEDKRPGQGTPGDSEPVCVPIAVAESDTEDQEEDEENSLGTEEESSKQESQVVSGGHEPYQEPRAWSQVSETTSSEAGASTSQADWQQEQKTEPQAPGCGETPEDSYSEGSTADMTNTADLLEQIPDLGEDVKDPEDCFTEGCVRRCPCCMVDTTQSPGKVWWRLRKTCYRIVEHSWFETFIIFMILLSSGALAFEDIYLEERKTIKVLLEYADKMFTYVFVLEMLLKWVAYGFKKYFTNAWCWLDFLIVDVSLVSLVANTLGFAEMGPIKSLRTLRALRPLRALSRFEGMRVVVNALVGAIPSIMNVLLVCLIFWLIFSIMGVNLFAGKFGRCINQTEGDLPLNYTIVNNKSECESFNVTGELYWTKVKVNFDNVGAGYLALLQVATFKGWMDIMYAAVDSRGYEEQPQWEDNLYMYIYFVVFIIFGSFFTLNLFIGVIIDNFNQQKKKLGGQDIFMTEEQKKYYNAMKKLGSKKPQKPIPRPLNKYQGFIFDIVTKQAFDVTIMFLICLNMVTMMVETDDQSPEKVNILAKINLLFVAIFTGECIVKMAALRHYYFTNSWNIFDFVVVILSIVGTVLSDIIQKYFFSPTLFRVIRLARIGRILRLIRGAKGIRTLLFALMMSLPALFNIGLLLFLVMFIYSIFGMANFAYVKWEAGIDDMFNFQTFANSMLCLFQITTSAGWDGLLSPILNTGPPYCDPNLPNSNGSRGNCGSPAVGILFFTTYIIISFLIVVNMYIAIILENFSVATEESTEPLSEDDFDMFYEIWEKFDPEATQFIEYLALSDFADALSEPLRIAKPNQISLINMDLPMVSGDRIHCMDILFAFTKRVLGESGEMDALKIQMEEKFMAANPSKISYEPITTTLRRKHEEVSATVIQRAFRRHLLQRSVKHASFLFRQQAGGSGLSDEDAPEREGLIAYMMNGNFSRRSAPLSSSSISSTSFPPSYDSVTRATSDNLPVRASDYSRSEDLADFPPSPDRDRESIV

Compound: CN(C(=O)C=Cc1ccc(Cl)c(Cl)c1)C1CCCC1N1CCCC1.Cl [Compound 3, (1R,2R)/(1S,2S)≠N-METHYL-N-[2-(1-PYRROLIDINYL)CYCLOPENTYL]3,4-DICHLOROCINNAMIDE MONOHYDROCHLORIDE]
- ED25 ERP (effective refractory period) [1]: 2 µmol/kg/min
- ED25 It (threshold current for capture) [1]: 4 µmol/kg/min
- ED25 VFT (fibrillation threshold current) [1]: 12 µmol/kg/min
- ED50AA [2]: 2 µmol/kg/min
- ED25 PR ([3]; dose required to produce a 25% increase in P-R interval): 8 µmol/kg
- ED25 QT ([3]; dose required to produce a 25% increase in Q-T interval): 5 µmol/kg
- ED25 QRS ([3]; dose required to produce a 25% increase in QRS interval): 12 µmol/kg

Compound: O=C(NCC1CCCCN1)c1cc(OCC(F)(F)F)ccc1OCC(F)(F)F (stereo not shown) [Flecainide]
- Median dose required for termination of AF ([4]; IV): 2.5 µmol/kg
- effect on blood pressure or heart rate ([4]; at the median dose for termination of vagal-AF): did not reduce blood pressure or heart rate
- prevented induction of AF ([4]; dogs in which AF was induced under control conditions during ERP determination with vagal nerve stimulation): 2/4
- AF cycle length (AFCL) ([4]; during vagal nerve stimulation, prior to termination of AF): prolonged AFCL
- Mean dose required for termination of AF ([4]; mean±SEM, IV): 4 ± 2 µmol/kg
- efficacy for terminating AF (dogs terminated/dogs tested) ([4]; vagal-AF): 5/6
- efficacy for terminating AF (percent of dogs) ([4]; vagal-AF): 80%

Compound: CCCCCCCN(CC)CCCC(O)c1ccc(NS(C)(=O)=O)cc1 (stereo not shown) [ibutilide]
- patients requiring cardioversion for refractory ventricular arrhythmias [5]: ~1.7%
- risk of ventricular proarrhythmia ([5]; patients): ~4.4%
